Tests used:
MV-4-11 cells = test: Cell growth inhibition assay (CellTiter-Glo), MV-4-11; format: cell-based; details: Homo sapiens, MV4-11
Outline: (§1)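 Leukemia lines grown in their own media were exposed for 4 days at 37° C. to 3-fold serial dilutions from 10 μM (0.1% DMSO). Viability by CellTiter-Glo ATP luminescence, corrected for background and day-0 plate; IC50 and TGI from four-parameter fit against vehicle (100%) and medium (−100%).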

THP-1 cells = test: Cell growth inhibition assay (CellTiter-Glo), THP-1; format: cell-based; details: Homo sapiens
Outline: as §1

K-562 cells = test: Cell growth inhibition assay (CellTiter-Glo), K-562; format: cell-based, human; details: for GI50: Homo sapiens, K562
Outline: as §1

With CCc1nn(C2CC2)c2c1C(c1ccc(Cl)cc1)N(c1cc(OC)c3nnc(C)n3c1)C2=O (centres unmarked) [Example 84, 4-(4-chlorophenyl)-1-cyclopropyl-3-ethyl-5-(8-methoxy-3-methyl-[1,2,4]triazolo[4,3-a]pyridin-6-yl)-4,5-dihydropyrrolo-[3,4-c]pyrazol-6(1H)-one] the GI50 (MV-4-11 cells) was 0.0583 µM, the GI50 (THP-1 cells) was 0.0869 µM and the GI50 (K-562 cells) was 0.384 µM.

CCc1nn(CCOC)c2c1C(c1ccc(Cl)cc1)N(c1cc(C)c(=O)n(C)c1)C2=O (centres unmarked) [Example 86, 4-(4-chlorophenyl)-5-(1,5-dimethyl-6-oxo-1,6-dihydropyridin-3-yl)-3-ethyl-1-(2-methoxyethyl)-4,5-dihydropyrrolo[3,4-c]pyrazol-6(1H)-one] gave a GI50 (MV-4-11 cells) of 0.0346 µM, a GI50 (THP-1 cells) of 0.0638 µM and a GI50 (K-562 cells) of 0.229 µM.

In the case of CCc1nn(CCOC)c2c1C(c1ccc(Cl)cc1)N(c1cc(C)c3nnc(C)n3c1)C2=O (centres unmarked) [Example 87, 4-(4-chlorophenyl)-5-(3,8-dimethyl-[1,2,4]triazolo[4,3-a]pyridin-6-yl)-3-ethyl-1-(2-methoxyethyl)-4,5-dihydropyrrolo-[3,4-c]pyrazol-6(1H)-one], the GI50 (MV-4-11 cells) was 0.0164 µM, the GI50 (THP-1 cells) was 0.0235 µM and the GI50 (K-562 cells) was 0.128 µM.

In the case of CCc1nn(-c2ccnn2C)c2c1C(c1ccc(Cl)cc1)N(c1cc(C)c(=O)n(C)c1)C2=O (centres unmarked) [Example 89, 4-(4-chlorophenyl)-5-(1,5-dimethyl-6-oxo-1,6-dihydropyridin-3-yl)-3-ethyl-1-(1-methyl-1H-pyrazol-5-yl)-4,5-dihydropyrrolo-[3,4-c]pyrazol-6(1H)-one], the GI50 (MV-4-11 cells) was 0.0465 µM, the GI50 (THP-1 cells) was 0.0406 µM and the GI50 (K-562 cells) was 0.442 µM.

For Cc1nn(-c2ccnn2C)c2c1C(c1ccc(Cl)cc1)N(c1cc(C)c3nnc(C)n3c1)C2=O (centres unmarked) [Example 90, 4-(4-chlorophenyl)-5-(3,8-dimethyl-[1,2,4]triazolo[4,3-a]pyridin-6-yl)-3-methyl-1-(1-methyl-1H-pyrazol-5-yl)-4,5-dihydropyrrolo[3,4-c]pyrazol-6(1H)-one], the GI50 (MV-4-11 cells) was 0.0255 µM, the GI50 (THP-1 cells) was 0.051 µM and the GI50 (K-562 cells) was 0.276 µM.

Work on Cc1nn(C2CC2)c2c1C(c1cccc(OC(F)(F)F)c1)N(c1cc(C)c(=O)n(C)c1)C2=O (centres unmarked) [Example 91, 1-cyclopropyl-5-(1,5-dimethyl-6-oxo-1,6-dihydropyridin-3-yl)-3-methyl-4-(3-(trifluoromethoxy)phenyl)-4,5-dihydropyrrolo-[3,4-c]pyrazol-6(1H)-one] yielded a GI50 (MV-4-11 cells) of 0.633 µM, a GI50 (THP-1 cells) of 0.908 µM and a GI50 (K-562 cells) of 2.68 µM.

In the case of Cc1nn(C2CC2)c2c1C(c1ccc(Cl)cc1)N(c1cc(C)c3nnc(C)n3c1)C2=O (centres unmarked) [Example 92, 4-(4-chlorophenyl)-1-cyclopropyl-5-(3,8-dimethyl-[1,2,4]triazolo[4,3-a]pyridin-6-yl)-3-methyl-4,5-dihydropyrrolo-[3,4-c]pyrazol-6(1H)-one], the GI50 (MV-4-11 cells) was 0.0109 µM, the GI50 (THP-1 cells) was 0.0192 µM and the GI50 (K-562 cells) was 0.065 µM.

Work on Cc1cc(N2C(=O)c3nn(C4CC4)c(C)c3C2c2ccc(Cl)cc2)cn2c(C)nnc12 (centres unmarked) [Example 93, 4-(4-chlorophenyl)-2-cyclopropyl-5-(3,8-dimethyl-[1,2,4]triazolo[4,3-a]pyridin-6-yl)-3-methyl-4,5-dihydropyrrolo[3,4-c]pyrazol-6(2H)-one] yielded a GI50 (MV-4-11 cells) of 0.0135 µM, a GI50 (THP-1 cells) of 0.0264 µM and a GI50 (K-562 cells) of 0.08 µM.

Cc1nn(C2CCC2)c2c1C(c1ccc(Cl)cc1)N(c1cc(C)c(=O)n(C)c1)C2=O (centres unmarked) [Example 94, 4-(4-chlorophenyl)-1-cyclobutyl-5-(1,5-dimethyl-6-oxo-1,6-dihydropyridin-3-yl)-3-methyl-4,5-dihydropyrrolo-[3,4-c]pyrazol-6(1H)-one] was tested, and the GI50 (MV-4-11 cells) was 0.0195 µM, the GI50 (THP-1 cells) was 0.0344 µM and the GI50 (K-562 cells) was 0.0969 µM.

Cc1nn(C2CC2)c2c1C(c1ccc(OC(F)(F)F)cc1)N(c1cc(C)c(=O)n(C)c1)C2=O (centres unmarked) [Example 95, 1-cyclopropyl-5-(1,5-dimethyl-6-oxo-1,6-dihydropyridin-3-yl)-3-methyl-4-(4-(trifluoromethoxy)phenyl)-4,5-dihydropyrrolo-[3,4-c]pyrazol-6(1H)-one] gave a GI50 (MV-4-11 cells) of 0.14 µM, a GI50 (THP-1 cells) of 0.245 µM and a GI50 (K-562 cells) of 0.868 µM.

For Cc1nn(C2CC2)c2c1C(c1cccc(C(F)(F)F)c1)N(c1cc(C)c(=O)n(C)c1)C2=O (centres unmarked) [Example 96, 1-cyclopropyl-5-(1,5-dimethyl-6-oxo-1,6-dihydropyridin-3-yl)-3-methyl-4-(3-(trifluoromethyl)phenyl)-4,5-dihydropyrrolo[3,4-c]pyrazol-6(1H)-one], the GI50 (MV-4-11 cells) was 0.894 µM, the GI50 (THP-1 cells) was 1.26 µM and the GI50 (K-562 cells) was 5.9 µM.

Cc1nn(C2CC2)c2c1C(c1ccc(C(F)(F)F)cc1)N(c1cc(C)c(=O)n(C)c1)C2=O (centres unmarked) [Example 97, 1-cyclopropyl-5-(1,5-dimethyl-6-oxo-1,6-dihydropyridin-3-yl)-3-methyl-4-(4-(trifluoromethyl)phenyl)-4,5-dihydropyrrolo-[3,4-c]pyrazol-6(1H)-one] showed a GI50 (MV-4-11 cells) of 0.068 µM, a GI50 (THP-1 cells) of 0.164 µM and a GI50 (K-562 cells) of 0.684 µM.

In the case of COc1ncc(-n2nc(C)c3c2C(=O)N(c2cc(C)c(=O)n(C)c2)[C@H]3c2ccc(Cl)cc2)c(OC)n1 [Example 99, (S)-4-(4-chlorophenyl)-1-(2,4-dimethoxypyrimidin-5-yl)-5-(1,5-dimethyl-6-oxo-1,6-dihydropyridin-3-yl)-3-methyl-4,5-dihydropyrrolo-[3,4-c]pyrazol-6(1H)-one], the GI50 (MV-4-11 cells) was 2 µM, the GI50 (THP-1 cells) was 2.84 µM and the IC (TGI) (K-562 cells) was >10 µM. The GI50 (K-562 cells) was > 10 µM.

Molecule COc1ncc(-n2nc(C)c3c2C(=O)N(c2cc(C)c(=O)n(C)c2)[C@@H]3c2ccc(Cl)cc2)c(OC)n1 [Example 100, (R)-4-(4-chlorophenyl)-1-(2,4-dimethoxypyrimidin-5-yl)-5-(1,5-dimethyl-6-oxo-1,6-dihydropyridin-3-yl)-3-methyl-4,5-dihydropyrrolo[3,4-c]pyrazol-6(1H)-one] has a GI50 (MV-4-11 cells) of 0.0405 µM, a GI50 (THP-1 cells) of 0.088 µM and a GI50 (K-562 cells) of 0.264 µM.

In the case of COc1ncccc1-n1nc(C)c2c1C(=O)N(c1cc(C)c3nnc(C)n3c1)C2c1ccc(Cl)cc1 (centres unmarked) [Example 101, 4-(4-chlorophenyl)-5-(3,8-dimethyl-[1,2,4]triazolo[4,3-a]pyridin-6-yl)-1-(2-methoxypyridin-3-yl)-3-methyl-4,5-dihydropyrrolo[3,4-c]pyrazol-6(1H)-one], the GI50 (MV-4-11 cells) was 0.0257 µM, the GI50 (THP-1 cells) was 0.053 µM and the GI50 (K-562 cells) was 0.261 µM.

Cc1nn(C2CC2)c2c1C(c1ccc(Cl)cc1)N(c1ccc3nnn(C)c3n1)C2=O (centres unmarked) [Example 102, 4-(4-chlorophenyl)-1-cyclopropyl-3-methyl-5-(3-methyl-3H-[1,2,3]triazolo[4,5-b]-pyridin-5-yl)-4,5-dihydropyrrolo-[3,4-c]pyrazol-6(1H)-one] was tested, and the GI50 (MV-4-11 cells) was 0.0875 µM, the GI50 (THP-1 cells) was 0.14 µM and the GI50 (K-562 cells) was 0.653 µM.

Cc1nn(C(C)C)c2c1[C@H](c1ccc(Cl)cc1)N(c1cc(C)c(=O)n(C)c1)C2=O [Example 103, (S)-4-(4-chlorophenyl)-5-(1,5-dimethyl-6-oxo-1,6-dihydropyridin-3-yl)-1-isopropyl-3-methyl-4,5-dihydropyrrolo-[3,4-c]pyrazol-6(1H)-one] was tested, and the GI50 (MV-4-11 cells) was 3.59 µM, the GI50 (THP-1 cells) was 7.29 µM and the GI50 (K-562 cells) was > 10 µM.

Cc1nn(C(C)C)c2c1[C@@H](c1ccc(Cl)cc1)N(c1cc(C)c(=O)n(C)c1)C2=O [Example 104, (R)-4-(4-chlorophenyl)-5-(1,5-dimethyl-6-oxo-1,6-dihydropyridin-3-yl)-1-isopropyl-3-methyl-4,5-dihydropyrrolo[3,4-c]pyrazol-6(1H)-one] was tested, and the GI50 (MV-4-11 cells) was 0.00997 µM, the GI50 (THP-1 cells) was 0.0262 µM and the IC (TGI) (K-562 cells) was >10 µM. It also gave a GI50 (K-562 cells) of 0.0576 µM.

— US20160095843A1, “PYRAZOLOPYRROLIDINE DERIVATIVES AND THEIR USE IN THE TREATMENT OF DISEASE” (NOVARTIS AG, priority 2013, published 2016)
